# In the supplement of paper PMC10307832:
# Tests used:
# Assay in all cases: relative viability (nuclei count vs DMSO), 5 days (fraction); higher = more cells survive
# Vandetanib + Pemetrexed = compound: COc1cc2/c(=N/c3ccc(Br)cc3F)nc[nH]c2cc1OCC1CCN(C)CC1 [Vandetanib] + Nc1nc2[nH]cc(CCc3ccc(C(=O)N[C@@H](CCC(=O)O)C(=O)O)cc3)c2c(=O)[nH]1 [Pemetrexed] (partner 0.2 µM)
# How it was run: (§1)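 A single step with final 0.05% Triton X-100, 1% formaldehyde and 1 ug/ml Hoechst fixed the cells and stained nuclei 5 days after treatment. Lung cancer cell lines in 1536-well plates had been treated by pin tool the day after seeding with one drug alone or a fixed anchor-drug dose plus five library-drug doses (not always all listed) in √10 steps, and nuclei were counted on 4× images. Relative viability is the ratio of nuclei in treated wells to nuclei in vehicle wells, taken as the median of duplicate plates.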
# Vandetanib + Dasatinib = compound: COc1cc2/c(=N/c3ccc(Br)cc3F)nc[nH]c2cc1OCC1CCN(C)CC1 [Vandetanib] + Cc1nc(Nc2ncc(C(=O)Nc3c(C)cccc3Cl)s2)cc(N2CCN(CCO)CC2)n1 [Dasatinib] (partner 0.075 µM)
# How it was run: as §1
# Vandetanib + Linsitinib = compound: COc1cc2/c(=N/c3ccc(Br)cc3F)nc[nH]c2cc1OCC1CCN(C)CC1 [Vandetanib] + C[C@]1(O)C[C@@H](c2nc(-c3ccc4ccc(-c5ccccc5)nc4c3)c3c(N)nccn32)C1 [Linsitinib] (partner 1 µM)
# How it was run: as §1
# CUDC-101 + Dasatinib = compound: C#Cc1cccc(Nc2ncnc3cc(OC)c(OCCCCCCC(=O)NO)cc23)c1 [CUDC-101] + Cc1nc(Nc2ncc(C(=O)Nc3c(C)cccc3Cl)s2)cc(N2CCN(CCO)CC2)n1 [Dasatinib] (partner 0.075 µM)
# How it was run: as §1
Cell Line,relative viability (Vandetanib + Pemetrexed; first compound 0.02 µM),relative viability (Vandetanib + Pemetrexed; first compound 0.06325 µM),relative viability (Vandetanib + Pemetrexed; first compound 0.2 µM),relative viability (Vandetanib + Pemetrexed; first compound 0.6325 µM),relative viability (Vandetanib + Pemetrexed; first compound 2 µM),relative viability (Vandetanib + Dasatinib; first compound 0.02 µM),relative viability (Vandetanib + Dasatinib; first compound 0.06325 µM),relative viability (Vandetanib + Dasatinib; first compound 0.2 µM),relative viability (Vandetanib + Dasatinib; first compound 0.6325 µM),relative viability (Vandetanib + Dasatinib; first compound 2 µM),relative viability (Vandetanib + Linsitinib; first compound 0.02 µM),relative viability (Vandetanib + Linsitinib; first compound 0.06325 µM),relative viability (Vandetanib + Linsitinib; first compound 0.2 µM),relative viability (Vandetanib + Linsitinib; first compound 0.6325 µM),relative viability (Vandetanib + Linsitinib; first compound 2 µM),relative viability (CUDC-101 + Dasatinib; first compound 0.01 µM),relative viability (CUDC-101 + Dasatinib; first compound 0.03162 µM),relative viability (CUDC-101 + Dasatinib; first compound 0.1 µM),relative viability (CUDC-101 + Dasatinib; first compound 0.3162 µM),relative viability (CUDC-101 + Dasatinib; first compound 1 µM)
NCI-H2405,0.987,0.982,1.01,1.08,0.836,0.217,0.183,0.2,0.187,0.199,0.901,0.552,0.959,1.01,0.665,0.217,0.193,0.228,0.214,0.191
NCI-H2087,0.661,0.64,0.619,0.641,0.623,0.809,0.661,0.684,0.835,0.984,0.918,1.03,0.831,0.922,0.911,0.795,0.946,0.841,0.971,0.718
NCI-H2023,0.182,0.197,–,0.202,0.252,0.584,0.563,0.514,0.542,0.59,0.698,0.607,0.676,0.589,0.485,0.564,0.635,0.616,0.748,0.461
NCI-H3122,0.192,0.196,0.201,0.202,0.208,0.683,0.673,0.122,0.76,0.797,1.01,0.946,0.957,0.964,0.993,0.82,0.867,0.798,0.783,0.454
ChaGo-K-1,0.257,0.271,0.259,0.255,0.263,0.581,0.63,0.269,0.584,0.607,–,–,–,–,–,0.571,0.612,0.526,0.539,0.529
NCI-H2347,0.433,0.393,0.443,0.443,0.427,0.299,–,0.312,0.323,0.345,0.976,0.64,0.929,0.995,0.982,0.308,0.323,0.261,0.337,0.346
NCI-H460,0.0623,0.0604,0.0622,0.0619,0.0589,0.366,0.536,0.48,0.36,0.482,0.733,0.758,0.0194,0.757,0.58,0.555,0.506,0.524,0.602,0.44
HCC-827,0.245,0.241,0.263,0.173,0.171,0.489,0.276,0.284,0.152,0.13,0.922,0.941,0.929,0.367,0.198,0.317,0.154,0.116,0.135,0.13
